PubChem BioAssay AID248 (DTP/NCI, 2004)
“And” between values parts separate entries of the source, which are not always exact repeats. Equal values may be shown once. Inconclusive results and toxic doses are left out.

Test system: L1210 leukemia ip in BDF1 mice, survival T/C
Assay: NCI In Vivo Anticancer Drug Screen. Data for tumor model L1210 Leukemia (intraperitoneal) in B6D2F1 (BDF1) mice
Details: endpoint: mean survival time, higher = longer survival
Method in brief: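 Value reflects the ratio of survival in compound-treated mice to survival in vehicle-treated controls, with both groups carrying the same transplanted tumor.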

## CC[C@@]1(O)C(=O)OCc2c1cc1n(c2=O)Cc2cc3ccccc3nc2-1
dose: 0.05 mg/kg/injection, schedule: Q01DX Z (ip), vehicle: carboxymethylcellulose (CMC)
  T/C: 94 % of control
dose: 0.1 mg/kg/injection, schedule: Q01DX Z (ip), vehicle: carboxymethylcellulose (CMC)
  T/C: 97 % of control
dose: 0.12 mg/kg/injection, schedule: Q01DX009 (ip), vehicle: saline
  T/C: 105 % of control and 108 % of control
dose: 0.12 mg/kg/injection, schedule: Q#A X Z (ip), vehicle: saline
  T/C: 122 % of control
dose: 0.13 mg/kg/injection, schedule: Q01DX Z (ip), vehicle: water
  T/C: 105 % of control
dose: 0.2 mg/kg/injection, schedule: Q01DX Z (ip), vehicle: saline
  T/C: 118 % of control
dose: 0.22 mg/kg/injection, schedule: Q01DX Z (ip), vehicle: water
  T/C: 103 % of control
dose: 0.22 mg/kg/injection, schedule: Q03DX Z (ip), vehicle: saline
  T/C: 103 % of control
dose: 0.25 mg/kg/injection, schedule: Q01DX006 (iv), vehicle: saline
  T/C: 103 % of control
dose: 0.25 mg/kg/injection, schedule: Q01DX009 (ip), vehicle: saline
  T/C: 94 % of control
dose: 0.25 mg/kg/injection, schedule: Q01DX Z (im), vehicle: saline
  T/C: 108 % of control
dose: 0.25 mg/kg/injection, schedule: Q01DX Z (sc), vehicle: saline
  T/C: 113 % of control
dose: 0.25 mg/kg/injection, schedule: Q## X Z (ip), vehicle: saline
  T/C: 106 % of control
dose: 0.25 mg/kg/injection, schedule: Q#A X Z (ip), vehicle: saline
  T/C: 154 % of control
dose: 0.33 mg/kg/injection, schedule: Q03DX Z (ip), vehicle: saline
  T/C: 111 % of control
dose: 0.36 mg/kg/injection, schedule: Q01DX Z (ip), vehicle: water
  T/C: 116 % of control
dose: 0.5 mg/kg/injection, schedule: Q01DX001 (ip), vehicle: saline
  T/C: 107 % of control
dose: 0.5 mg/kg/injection, schedule: Q01DX006 (iv), vehicle: saline
  T/C: 116 % of control
dose: 0.5 mg/kg/injection, schedule: Q01DX009 (ip), vehicle: saline
  T/C: 111 % of control
dose: 0.5 mg/kg/injection, schedule: Q01DX Z (ip), vehicle: carboxymethylcellulose (CMC)
  T/C: 163 % of control
dose: 0.5 mg/kg/injection, schedule: Q01DX Z (oral), vehicle: saline
  T/C: 120 % of control
dose: 0.5 mg/kg/injection, schedule: Q01DX Z (sc), vehicle: saline
  T/C: 118 % of control
dose: 0.5 mg/kg/injection, schedule: Q03DX Z (ip), vehicle: saline
  T/C: 108 % of control
dose: 0.6 mg/kg/injection, schedule: Q01DX Z (ip), vehicle: water
  T/C: 156 % of control
dose: 0.75 mg/kg/injection, schedule: Q01DX009 (ip), vehicle: saline
  T/C: 94 % of control and 95 % of control
dose: 0.75 mg/kg/injection, schedule: Q03DX Z (ip), vehicle: saline
  T/C: 114 % of control
dose: 1.0 mg/kg/injection, schedule: Q01DX001 (ip), vehicle: saline
  T/C: 107 % of control
dose: 1.0 mg/kg/injection, schedule: Q01DX006 (iv), vehicle: saline
  T/C: 114 % of control
dose: 1.0 mg/kg/injection, schedule: Q01DX009 (ip), vehicle: saline
  T/C: 97 % of control
dose: 1.0 mg/kg/injection, schedule: Q01DX010 (ip), vehicle: saline
  T/C: 153 % of control
dose: 1.0 mg/kg/injection, schedule: Q01DX010 (iv), vehicle: saline
  T/C: 117 % of control
dose: 1.0 mg/kg/injection, schedule: Q01DX Z (ip), vehicle: carboxymethylcellulose (CMC)
  T/C: 166 % of control
dose: 1.0 mg/kg/injection, schedule: Q01DX Z (ip), vehicle: saline
  T/C: 158 % of control
dose: 1.0 mg/kg/injection, schedule: Q01DX Z (ip), vehicle: water
  T/C: 171 % of control
dose: 1.0 mg/kg/injection, schedule: Q01DX Z (oral), vehicle: saline
  T/C: 109 % of control
dose: 1.0 mg/kg/injection, schedule: Q#A X Z (ip), vehicle: saline
  T/C: 185 % of control
dose: 1.25 mg/kg/injection, schedule: Q04DX003 (ip), vehicle: Klucel (hydroxypropylcellulose) (HPC)
  T/C: 113 % of control
dose: 1.5 mg/kg/injection, schedule: Q03DX Z (ip), vehicle: saline
  T/C: 120 % of control
dose: 1.5 mg/kg/injection, schedule: Q#A X Z (ip), vehicle: saline
  T/C: 104 % of control
dose: 1.6 mg/kg/injection, schedule: Q01DX Z (ip), vehicle: saline
  T/C: 196 % of control
dose: 2.0 mg/kg/injection, schedule: Q01DX001 (ip), vehicle: saline
  T/C: 100 % of control and 124 % of control
dose: 2.0 mg/kg/injection, schedule: Q01DX006 (iv), vehicle: saline
  T/C: 109 % of control
dose: 2.0 mg/kg/injection, schedule: Q01DX010 (ip), vehicle: saline
  T/C: 93 % of control
dose: 2.0 mg/kg/injection, schedule: Q01DX Z (im), vehicle: saline
  T/C: 94 % of control and 118 % of control
dose: 2.0 mg/kg/injection, schedule: Q01DX Z (ip), vehicle: saline
  T/C: 122 % of control
